Measured values from patent publication US20220098196A1, “TRAPPING-FREE PARP INHIBITORS” (The Board of Regents of the University of Texas System, priority 2019, published 2022).
Each block holds one molecule with its values, some of them ahead of it. Where a SMILES comes first, the peptide text is derived from it. The star is where a group is joined. Cbz = O=C(OCc1ccccc1)*

How the values were obtained:
PARP1 [1] = target: T1, PARP1 (Homo sapiens, UniProt P09874); assay: In Vitro PARP1 Activity Assay (PARP universal chemiluminescent assay kit); type: biochemical; conditions: in vitro
T1 sequence (P09874 whole entry): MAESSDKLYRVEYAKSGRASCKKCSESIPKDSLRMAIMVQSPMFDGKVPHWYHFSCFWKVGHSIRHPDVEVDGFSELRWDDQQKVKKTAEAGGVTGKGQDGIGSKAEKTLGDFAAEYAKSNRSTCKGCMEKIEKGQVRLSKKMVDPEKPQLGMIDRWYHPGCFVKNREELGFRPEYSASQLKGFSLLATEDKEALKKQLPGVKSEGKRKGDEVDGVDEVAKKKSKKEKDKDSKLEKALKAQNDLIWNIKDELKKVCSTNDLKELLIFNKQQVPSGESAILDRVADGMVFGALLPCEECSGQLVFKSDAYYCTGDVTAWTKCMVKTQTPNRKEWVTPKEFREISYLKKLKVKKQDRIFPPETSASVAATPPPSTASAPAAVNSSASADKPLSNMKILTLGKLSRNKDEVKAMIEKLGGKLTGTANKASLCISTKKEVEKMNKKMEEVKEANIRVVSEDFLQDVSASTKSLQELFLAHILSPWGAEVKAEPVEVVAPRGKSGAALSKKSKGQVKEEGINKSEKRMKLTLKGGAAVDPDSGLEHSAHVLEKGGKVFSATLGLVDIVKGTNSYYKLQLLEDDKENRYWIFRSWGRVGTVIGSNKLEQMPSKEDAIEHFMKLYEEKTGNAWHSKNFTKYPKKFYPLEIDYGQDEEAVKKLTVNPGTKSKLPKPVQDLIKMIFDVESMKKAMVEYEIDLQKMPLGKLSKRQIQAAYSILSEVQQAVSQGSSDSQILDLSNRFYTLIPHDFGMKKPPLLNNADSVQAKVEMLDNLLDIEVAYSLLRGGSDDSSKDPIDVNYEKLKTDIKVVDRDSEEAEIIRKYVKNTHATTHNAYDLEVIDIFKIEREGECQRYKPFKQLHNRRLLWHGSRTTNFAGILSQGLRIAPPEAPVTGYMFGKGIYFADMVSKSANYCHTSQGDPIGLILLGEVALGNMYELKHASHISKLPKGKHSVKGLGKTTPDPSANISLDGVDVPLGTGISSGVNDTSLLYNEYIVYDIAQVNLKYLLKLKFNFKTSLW
Procedure: In Vitro PARP1 Activity Assay. […] Briefly, the histone-coated strip wells were hydrated with the assay buffer for 30 min. The various compounds were added and were incubated with the PARP enzyme for 10 min. The reaction cocktail containing biotinylated NAD^+ was then added into the system, which was incubated for 1 hour to activate PARP1. After the reaction, the wells were washed twice with 0.1% Triton X-100/PBS and twice with PBS. The wells were incubated with Strep-HRP for another hour and were washed again as described above. PeroxyGlow reagents were mixed and added into the strip wells, and the biotin signal on coated histone was immediately measured with chemiluminescence on a Synergy microplate reader (Bio-Tek). The well without PARP1, and the well with PARP1 only was used as the negative (0%) and positive (100%) control, respectively.

PARP1 [2] = target: T1, PARP1; assay: PARP1 degradation in HeLa cells (immunoblotting); type: cell-based; design: host or cells: HeLa; conditions: 24 hours; for PARP1 degradation: increasing concentrations; for effect on iRucaparib-induced PARP1 degradation: iRucaparib 5 μM plus MG132 (1 μM), Rucaparib (1 μM) or increasing pomalidomide
Procedure: (§1) Immunoblotting. Cells were washed once with cold PBS and lysed with the SDS lysis buffer (1% SDS, 10 mM HEPES pH 7.0, 2 mM MgCl2, 500 U universal nuclease). Protein concentrations were determined by the BCA assay kit (Thermo Fisher Scientific). A total of 20 μg proteins (40 μg proteins for PAR immunoblotting experiments) were loaded onto the SDS-PAGE gel and were then transferred to a nitrocellulose membrane. Nitrocellulose membranes were then blocked with the TBST buffer containing 5% milk (Bio-Rad). Membranes were incubated with the primary antibodies overnight at 4° C. and the secondary antibodies for 1 hour at room temperature (RT). The blots were developed using enhanced chemiluminescence and were exposed on autoradiograph films.

PARP1 [3] = target: T1, PARP1; assay: PARP1 degradation in VHL-proficient (BT-549, PC-3) and VHL-deficient (786-O) cells (immunoblotting); type: cell-based; design: host or cells: MDA-MB-468; BT-549; PC-3; 786-O; conditions: 24 hours
Procedure: as §1

[4] = Phase III, patients taking pomalidomide and dexamethasone vs. dexamethasone alone; p=0.0002; cited from earlier work
ZFP91 = ZFP91 (Homo sapiens, UniProt Q96JP5+Q96SW2); assay: TMT quantitative proteomics in BT-549 cells, ZFP91; type: cell-based; design: host or cells: HeLa; BT-549; conditions: VHL-Rucaparib 20 μM, 24 hours
Chain of ZFP91 (Q16531 2-1140): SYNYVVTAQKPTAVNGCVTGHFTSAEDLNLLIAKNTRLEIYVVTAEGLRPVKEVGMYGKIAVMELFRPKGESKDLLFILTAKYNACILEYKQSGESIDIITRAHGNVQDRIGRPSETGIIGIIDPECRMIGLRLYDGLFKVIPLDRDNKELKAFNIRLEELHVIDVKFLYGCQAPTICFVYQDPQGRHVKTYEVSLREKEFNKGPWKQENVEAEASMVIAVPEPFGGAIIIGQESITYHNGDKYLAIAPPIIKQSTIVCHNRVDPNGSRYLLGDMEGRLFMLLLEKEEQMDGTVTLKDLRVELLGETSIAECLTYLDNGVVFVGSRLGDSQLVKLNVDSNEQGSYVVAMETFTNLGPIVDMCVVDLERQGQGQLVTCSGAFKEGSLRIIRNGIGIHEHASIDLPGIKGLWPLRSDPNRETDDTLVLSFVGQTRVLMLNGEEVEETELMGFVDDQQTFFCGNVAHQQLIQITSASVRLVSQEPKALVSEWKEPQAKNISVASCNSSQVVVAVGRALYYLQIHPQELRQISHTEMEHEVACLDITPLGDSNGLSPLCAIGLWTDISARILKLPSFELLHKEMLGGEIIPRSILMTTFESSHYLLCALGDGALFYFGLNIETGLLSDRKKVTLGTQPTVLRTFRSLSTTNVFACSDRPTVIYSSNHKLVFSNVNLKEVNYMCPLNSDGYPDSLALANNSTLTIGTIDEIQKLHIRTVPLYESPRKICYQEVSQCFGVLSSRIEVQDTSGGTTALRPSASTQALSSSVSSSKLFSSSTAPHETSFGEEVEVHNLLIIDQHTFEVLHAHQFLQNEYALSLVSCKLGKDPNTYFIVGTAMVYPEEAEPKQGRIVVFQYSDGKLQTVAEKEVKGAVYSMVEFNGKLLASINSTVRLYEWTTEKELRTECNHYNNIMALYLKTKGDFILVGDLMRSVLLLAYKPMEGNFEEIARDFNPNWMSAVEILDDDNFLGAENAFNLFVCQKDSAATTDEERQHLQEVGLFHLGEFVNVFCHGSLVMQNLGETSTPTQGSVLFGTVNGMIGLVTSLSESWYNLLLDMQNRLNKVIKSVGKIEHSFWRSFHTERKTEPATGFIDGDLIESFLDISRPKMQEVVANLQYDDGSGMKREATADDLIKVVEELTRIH
Chain of ZFP91 (Q96SW2 whole entry): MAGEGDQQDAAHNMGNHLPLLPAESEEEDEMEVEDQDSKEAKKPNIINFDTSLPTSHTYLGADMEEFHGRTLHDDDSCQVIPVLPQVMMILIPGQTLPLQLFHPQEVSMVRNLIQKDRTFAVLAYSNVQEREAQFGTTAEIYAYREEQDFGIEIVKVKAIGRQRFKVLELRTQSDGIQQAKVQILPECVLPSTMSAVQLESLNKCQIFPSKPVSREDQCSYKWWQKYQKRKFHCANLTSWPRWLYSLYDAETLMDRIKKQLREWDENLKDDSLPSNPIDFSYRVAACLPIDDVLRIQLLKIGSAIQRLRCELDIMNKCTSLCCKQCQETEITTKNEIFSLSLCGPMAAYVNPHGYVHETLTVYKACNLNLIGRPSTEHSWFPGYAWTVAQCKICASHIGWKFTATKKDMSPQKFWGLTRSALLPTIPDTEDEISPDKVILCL
Chain of ZFP91 (Q96JP5 2-570): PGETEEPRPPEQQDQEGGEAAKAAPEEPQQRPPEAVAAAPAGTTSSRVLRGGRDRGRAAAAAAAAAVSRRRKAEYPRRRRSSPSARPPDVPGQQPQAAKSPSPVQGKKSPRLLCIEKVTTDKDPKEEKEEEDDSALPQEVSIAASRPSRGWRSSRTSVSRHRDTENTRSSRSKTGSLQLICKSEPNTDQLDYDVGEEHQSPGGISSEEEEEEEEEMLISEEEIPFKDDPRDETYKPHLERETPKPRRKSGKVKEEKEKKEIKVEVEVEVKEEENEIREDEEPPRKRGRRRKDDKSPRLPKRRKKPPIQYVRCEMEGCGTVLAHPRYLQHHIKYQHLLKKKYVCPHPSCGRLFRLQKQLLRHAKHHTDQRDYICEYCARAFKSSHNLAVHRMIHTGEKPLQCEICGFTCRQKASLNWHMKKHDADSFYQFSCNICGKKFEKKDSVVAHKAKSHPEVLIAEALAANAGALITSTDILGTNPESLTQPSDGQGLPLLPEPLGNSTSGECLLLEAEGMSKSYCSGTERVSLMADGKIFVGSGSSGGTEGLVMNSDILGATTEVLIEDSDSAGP
Procedure: Quantitative Mass Spectrometry. […] Two biological replicate samples were prepared for each treatment condition. Cells were washed with cold PBS and lysed using the SDS lysis buffer. Protein concentrations were determined by the BCA assay (Thermo Fisher Scientific). For each sample, 500 μg of protein was used for the subsequent TMT experiments^34.
For the TMT experiments, proteins were reduced with 2 mM DTT for 10 min and alkylated with 50 mM iodoacetamide for 30 min in dark. Proteins were then extracted using methanol-chloroform precipitation. Protein pellets were dissolved in 400 μL 8 M Urea buffer (8 M urea, 50 mM Tris-HCl, 10 mM EDTA, pH 7.5) and were digested by Lys-C (Wako, at a 1:100 enzyme/protein ratio) for 2 hours at RT. The urea concentration was then reduced to 2 M using freshly made 100 mM ammonium bicarbonate solution. […]
Samples were desalted and fractioned by bRPLC (basic pH reversed phase HPLC) on a ZORBAX 300 Extend-C18 column (Narrow Bore RR 2.1 mm×100 mm, 3.5 μm particle size, 300 Å pore size). […] Samples were then analyzed on an Orbitrap Elite mass spectrometer (Thermo Fisher Scientific) using a top 15 HCD (higher-energy collisional dissociation) method.
The maximum intensity of each reporter ion was extracted. For each reporter ion channel, the observed signal-to-noise ratio was summed across all quantified proteins and was normalized.

PARP1 [5] = target: T1, PARP1; assay: TMT quantitative proteomics in BT-549 cells, PARP1; type: cell-based; conditions: iRucaparib 5 μM or VHL-Rucaparib 20 μM, 24 hours, 8,207 quantified proteins
Excerpt: Quantitative Mass Spectrometry.
Proteins were then extracted using methanol-chloroform precipitation.
The maximum intensity of each reporter ion was extracted.

PARP1 [6] = target: T1, PARP1; assay: PARP1 trapping in HeLa cells (subcellular fractionation, chromatin-bound fraction); type: cell-based; design: host or cells: HeLa; conditions: 5 μM for all compounds, MMS 0.01%
Procedure: Subcellular Proteins Extraction. […] The cytosolic proteins were isolated by incubating the cells with the CEB buffer for 10 min at 4° C., and centrifuged at 500 g for 5 min. The membrane proteins were isolated by incubating the pellet from previous step with the MEB buffer for 10 min at 4° C., and centrifuged at 3000 g for 5 min. The soluble nuclear proteins were isolated by incubating the pellet from previous step with the NEB buffer for 30 min at 4° C., and centrifuged at 5000 g for 5 min. The chromatin bound proteins were isolated by incubating the pellet from previous step with the NEB buffer supplemented with nuclease for 15 min at RT and centrifuged at 16000 g for 5 min. Protein concentrations were determined by the BCA assay kit.

- PARP1 degradation (PARP1 [2]): not able to degrade PARP1
Compound: CN(CCCCc1cn(CCOCCNc2cccc3c2C(=O)N(C2CCC(=O)NC2=O)C3=O)nn1)Cc1ccc(-c2[nH]c3cc(F)cc4c3c2CCNC4=O)cc1 (centres unmarked) [PEG1, Rucaparib-Triazole-PEG1-Pomalidomide]
- biochemical (catalytic) inhibition of PARP1 (PARP1 [1]): maintained catalytic inhibitory activity against PARP1

Compound: CC(C)C[C@@H](C=O)NC(=O)[C@H](CC(C)C)NC(=O)[C@H](CC(C)C)NC(=O)OCc1ccccc1 [MG132, reference compound] (Cbz-Leu-Leu-Leu-aldehyde)
- effect on VHL-Rucaparib-induced PARP1 degradation (PARP1 [3]; PC-3 cells, VHL-Rucaparib 10 μM plus MG-132 1 μM): could be rescued by MG-132 treatment
- effect on iRucaparib-induced PARP1 degradation (PARP1 [2]): completely blocked

- effect on PARP1 protein levels (PARP1 [2]; 5 μM): had no effect on PARP1 protein levels
- effect on iRucaparib-induced PARP1 degradation (PARP1 [2]): block PARP1 degradation
Compound: Nc1cccc2c1C(=O)N(C1CCC(=O)NC1=O)C2=O (centres unmarked) [pomalidomide, reference compound]
- overall survival (median) [4]: 11.9 months

Compound: CN(CCCCc1cn(CCOCCOCCOCCOCCNc2cccc3c2C(=O)N(C2CCC(=O)NC2=O)C3=O)nn1)Cc1ccc(-c2[nH]c3cc(F)cc4c3c2CCNC4=O)cc1 (centres unmarked) [PEG4 PROTAC, Rucaparib-Triazole-PEG4-Pomalidomide]
- PARP1 degradation (PARP1 [2]): able to degrade PARP1 as efficiently as iRucaparib

Compound: Cc1ncsc1-c1ccc(CNC(=O)[C@@H]2C[C@@H](O)CN2C(=O)[C@@H](NC(=O)CCOCCOCCOCCOCCn2cc(CCCCN(C)Cc3ccc(-c4[nH]c5cc(F)cc6c5c4CCNC6=O)cc3)nn2)C(C)(C)C)cc1 [VHL-Rucaparib, Rucaparib-Triazole-PEG4-VHL-Ligand]
- ZFP91 abundance change (ZFP91): did not show any changes
- PARP1 degradation (PARP1 [3]; BT549 cells, iRucaparib 5 μM or VHL-Rucaparib 20 μM): robust PARP1 degradation
- PARP1 level (PARP1 [3]; BT-549 cells (VHL-proficient)): successfully downregulated
- PARP1 level (PARP1 [3]; PC-3 cells (VHL-proficient), 10 μM): successfully downregulated
- PARP1 downregulation (PARP1 [5]): one of the most significantly downregulated proteins

Compound: NC(=O)c1cccc2cn(-c3ccc([C@@H]4CCCNC4)cc3)nc12 [Niraparib]
- potency in PARP1 trapping (rank order) (PARP1 [6]): BMN673>Niraparib>Olaparib>Rucaparib>Veliparib

Compound: CN(CCCCc1cn(CCOCCOCCNc2cccc3c2C(=O)N(C2CCC(=O)NC2=O)C3=O)nn1)Cc1ccc(-c2[nH]c3cc(F)cc4c3c2CCNC4=O)cc1 (centres unmarked) [PEG2, Rucaparib-Triazole-PEG2-Pomalidomide]
- biochemical (catalytic) inhibition of PARP1 (PARP1 [1]): maintained catalytic inhibitory activity against PARP1
- PARP1 degradation (PARP1 [2]): not able to degrade PARP1

Compound: C[C@]1(c2nc3c(C(N)=O)cccc3[nH]2)CCCN1 [Veliparib]
- potency in PARP1 trapping (rank order) (PARP1 [6]): BMN673>Niraparib>Olaparib>Rucaparib>Veliparib
